Reference: patent publication US20170349532A1, “CATIONIC LIPID” (Kyowa Hakko Kirin Co., Ltd., priority 2011, published 2017)

Tests used:
[1] = test system: CKAP5 mRNA in MIA PaCa-2 subcutaneous tumor; assay: Test Example 3: in vivo mRNA knockdown evaluation in MIA PaCa-2 xenograft; set-up: species or system SCID mouse; conditions: Example 122 preparation with CKAP5 siRNA; 48 hours after intravenous administration, 10 mg/kg siRNA, MIAPaCa-2 xenograft mouse
Experimental: The preparations obtained in Example 122 and 123 are subjected to an in vivo mRNA knockdown evaluation test in the following manner.
MIA PaCa-2 that is a cell line derived from human pancreas cancer is received from the JCRB Cell Bank and cultivated with high glucose-containing DMEM (manufactured by GIBCO, 11995-073) containing a 10% inactivated fetal calf serum (manufactured by GIBCO) and 1 vol % penicillin-streptomycin (manufactured by GIBCO, 26253-84) under conditions at 37° C. and 5% CO2. […] Before the administration and 48 hours after the administration, the weight of the mouse is measured. […]
With respect to the obtained tumor sample, 1 mL of a Trizol reagent (manufactured by Invitrogen, 15596-018) and zirconia beads of 5 mm are added to a 2-mL round bottom tube containing the sample charged therein, and the contents are pulverized by Tissue lyser II (manufactured by QIAGEN) under conditions of 1/25 freq, 1.5 minutes×2 times. […] A concentration of the extracted RNA is measured by a trace absorption photometer Dropsense96 (Trinean), and RNA corresponding to from 200 to 1,000 ng is subjected to reverse transfer with a Transcriptor (manufactured by Roche, 4897030). […] An mRNA amount of the specimen is calculated as a relative proportion when the mRNA amount of CKAP5 mRNA was defined as 1. […]

[2] = Average particle diameter of preparation (Zetasizer Nano ZS); format: physicochemical; conditions: average particle diameter of cationic lipid/nucleic acid complex; Example 118 preparation: compound/PEG-DMPE Na/DSPC/cholesterol with apo-b siRNA
Outline: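 Lipid nanoparticles formed by mixing cationic lipid/PEG-DMPE Na/DSPC/cholesterol (8.947/1.059/5.708/13.697 mmol/L in 90% ethanol, 37 °C) with apo-b siRNA in Tris-EDTA/citrate buffer pH 5.0, then diluted with citrate/NaCl pH 6.0 and DPBS to 10 μM siRNA. Mean complex diameter measured by dynamic light scattering.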

Compound: CCCCC/C=C\C/C=C\CCCCCCCC(=O)OC[C@@H]1CN(C)C[C@H]1COC(=O)CCCCCCC/C=C\C/C=C\CCCCC (relative stereo) [Compound 110, trans-1-Methyl-3,4-bis(((9Z,12Z)-octadec-9,12-dienoyloxy)methyl)pyrrolidine]
- amount of CKAP mRNA in tumor, relative proportion [1]: 0.28
- in vivo mRNA knockdown rate [1]: 72%
- Particle diameter of Preparetion [2]: 131.6 nm
